Source: paper PMC5271370, “A High-Content Assay Enables the Automated Screening and Identification of Small Molecules with Specific ALDH1A1-Inhibitory Activity” (PLoS ONE, 2017)
Read-outs that look alike come from different tables or passages of the source.

Test system: HT-29 cells
Experiment: 1,536-well high-content imaging ALDEFLUOR assay, HT-29
Type: cell-based, human
Settings: for IC50: read-out: Aldefluor IC50 HT-29; for Activity in ALDEFLUOR assay, HT-29: semi-automated, active = high quality concentration response curve and >50% efficacy, up to 45.8 μM
Procedure: To miniaturize the assay into a 1536-well format amenable to qHTS, we chose MIA PaCa-2 and HT-29 because of their high levels of ALDH1A1(Fig 1A). Utilizing the 8-step protocol described by Ming et al. as a starting point, we developed a “semi-automated” protocol described in S1 Table. Briefly, we plated 1,000 cells in a volume of 5 μL/well into black-optical quality clear bottom 1,536-well plates, and allowed cells to attach overnight. Culture media was subsequently removed by inverting and centrifuging plates using a plate adaptor as previously described and replaced with 5 μL of a solution of either 500 or 100 nM BAAA substrate in ALDEFLUOR buffer. To identify cells based on nuclear staining, we also included 0.5 nM Hoechst 33342 in the above buffer. […] After incubating the plate for 30 minutes at 37°C, 5% CO2, 85% RH, the remaining substrate was removed by centrifugation as above and replaced with 3 μL of ALDEFLUOR buffer. Fluorescence was subsequently imaged using the IN Cell Analyzer 2200 high-content widefield fluorescence based imager and the resulting images were quantified using the IN Cell Investigator v1.6.2 analysis software (see Experimental Procedures for analysis details).
The ALDEFLUOR kit was purchased from […] Technologies (Vancouver, Canada; #01700). Cells (5 μL) were dispensed into black, optical quality (cyclic olefin copolymer) clear bottom, medium binding TC treated 1,536-well plates (Aurora Microplates, Whitefish MT) using a Multidrop Combi dispenser (ThermoFisher) and incubated overnight (37°C, 5% CO2, 85% RH). Media was subsequently removed by centrifuging plates upside down using a plate adaptor to collect media. A solution of BAAA substrate ([…] Technologies) and Hoechst 33342 (ThermoFisher, final concentrations of 500 nM and 0.5 nM, respectively) in ALDEFLUOR buffer ([…] Technologies #01700) was dispensed onto cells using a Multidrop Combi followed by immediate transfer (23 nL) of compound or control solutions using a Wako Pin-tool (final percentage of DMSO in the cell plates was 0.5%). Unless otherwise noted, all compounds were assayed as 16-point dilutions spanning a final concentration range of 1.4 nM to […]. […] Cells were incubated for 30 minutes or the indicated amount of time at 37°C, 5% CO2, 85% RH to allow the conversion of BAAA into BAA. Supernatant was subsequently removed by centrifugation as described above, then ALDEFLUOR buffer (3 μl) was dispensed by Multidrop Combi before imaging on an IN Cell 2200 (GE Healthcare).
The above assay was modified for an online robotic screening system. After cell plating and overnight incubation, 4 μL of media were removed using a 64-tip metal aspirator head on a Wako aspirator station, leaving 1 μL remaining in the well, followed by a 4 μL dispense of BAAA and Hoechst 33342 in ALDEFLUOR buffer, for a final concentration of 500 nM and 0.5 nM, respectively. Immediately following the dispense, 23 nL of compound or control solutions were transferred using a Wako Pin-tool. Cells were incubated for 30 minutes at 37°C, 5% CO2, 85% RH, followed by a 4 μL media removal using the Wako aspirator, and a subsequent 3 μL addition of ALDEFLUOR buffer. Plates were then immediately read on the IN Cell 2200 as described below.
For images captured on the IN Cell 2200 widefield automated microscope, a 10x 0.45 NA Plan Apo objective lens was used to capture the entire well of the 1,536-well plate using standard DAPI (390/18x, 432/48m) and FITC (475/28x, 525/48m) filter sets at 50 msec and 100 msec exposures, respectively. Images were subsequently analyzed using IN Cell Investigator v1.6.2 analysis software’s canned Multi-Target Analysis algorithm (GE Healthcare). Hoechst stained nuclei were identified using top hat segmentation with a minimum area of 75 μm^2 and sensitivity of 93. […]

[1] = Homo sapiens, HT-29, 0.5 h, validation set, semi-automated protocol, 16-point dilution, 1,000 cells/well, 500 nM BAAA, 30 min
[2] = validation set, semi-automated protocol, 16-point dilution, 1,000 cells/well, 500 nM BAAA, 30 min

Question: For `CC(C)=CCCC(C)=CC=O` (mixture of isomers) [Citral], which IC50 [1] is on record?
Answer: ~27 µM

Question: What about the IC50 [2] of the same compound?
Answer: 26.6 µM

Question: Which IC50 [2] does the source give for `COc1ccc(C(=O)CCN(C)C)cc1F` [Aldi-2] here?
Answer: 17.5 µM

Question: For `CC(C)(C)c1ccc(S(=O)(=O)/C=C/C#N)cc1` [Bay-11-7085], which IC50 [2] is on record?
Answer: 14.3 µM

Question: With `Cc1nc2ccccc2n1S(=O)(=O)c1ccc(F)cc1` [CB7] as the compound, how does the “Activity in ALDEFLUOR assay, HT-29” value read?
Answer: tested negative

Question: Which IC50 [2] does the source give for `CCOc1ccc(NCC(=O)Nc2ccc(Cl)cc2C)cc1` [CID 725345] here?
Answer: 14.5 µM

Question: `COc1cccc2cc(C(=O)CC3(O)C(=O)N(Cc4ccccc4)c4ccccc43)c(=O)oc12` (centres unmarked) [CID 2929292] was tested. Which “Activity in ALDEFLUOR assay, HT-29” value did it give?
Answer: tested negative

Question: For `CCN(CC)c1ccc(C=O)cc1` [DEAB, 4-N,N-diethylaminobenzaldehyde], which IC50 [2] is on record?
Answer: 1.69 µM

Question: How did the “Activity in ALDEFLUOR assay, HT-29” value turn out when `O=c1c(-c2ccc(O)cc2)coc2cc(O[C@@H]3O[C@H](CO)[C@@H](O)[C@H](O)[C@H]3O)ccc12` [Daidzin] was run?
Answer: tested negative

Question: With `CCN(CC)C(=S)SSC(=S)N(CC)CC` [Disulfiram] as the compound, how does the IC50 [1] read?
Answer: 10.9 µM

Question: How did the IC50 (Homo sapiens, HT-29, 0.5 h) turn out when `Cc1cc2c(C(C)C)c(O)c(O)c(C=O)c2c(O)c1-c1c(C)cc2c(C(C)C)c(O)c(O)c(C=O)c2c1O` [Gossypol] was run?
Answer: 16.5 µM

Question: What about the “Activity in ALDEFLUOR assay, HT-29” value of the same compound?
Answer: active

Question: For `Nc1ccccc1C(=O)CC(N)C(=O)O` (centres unmarked) [Kynurenine], which “Activity in ALDEFLUOR assay, HT-29” value is on record?
Answer: tested negative

Question: How did the IC50 [1] turn out when `C#CCN(C)Cc1ccccc1` [Pargyline] was run?
Answer: 33.5 µM

Question: What about the “Activity in ALDEFLUOR assay, HT-29” value of the same compound?
Answer: active

Question: For `O=C1Nc2ccccc2C1=O` [indoline-2,3-dione], which IC50 [1] is on record?
Answer: 17.8 µM

Question: How did the “Activity in ALDEFLUOR assay, HT-29” value turn out when CVT-10216 was run?
Answer: tested negative
